According to article PMC10394516, “The pharmacokinetic profile of brensocatib and its effect on pharmacodynamic biomarkers including NE, PR3, and CatG in various rodent species” (Frontiers in Pharmacology, 2023):

How the values were obtained:
Assay type in all cases: in vivo
NE = test: Bone marrow NE activity after repeated dosing, Wistar rats; details: for Reduction of NE activity vs vehicle / Change From Vehicle Control (%) NE: 7 days
Method: Briefly, animals were weighed and randomized into different treatment groups. In total, three different dosing levels of brensocatib were tested in each species and strain; each QD dosing level was equivalent to 1.5-times the matching daily BID dose. For BID dosing, the second daily dose was administered 8-h post the morning dose. C57BL/6 mice were dosed either BID or QD for 7 consecutive days at 0/0, 0.5/0.75, 2/3, and 20/30 mg/kg/day (BID/QD). BALB/c mice were dosed for 7 consecutive days at 0/0, 0.2/0.3, 2/3, and 20/30 mg/kg/day (BID/QD). SD rats were dosed for 9 consecutive days at 0/0, 0.2/0.3, 2/3, and 20/30 mg/kg/day (BID/QD). Wistar rats were dosed for 7 consecutive days at 0/0, 0.2/0.3, 2/3, and 20/30 mg/kg/day (BID/QD).
At the completion of the study, animals were sacrificed 16–24 h post their final dose. The hind limb bones (femurs and tibias) were collected at necropsy for bone marrow analysis of NSP activities by kinetic enzymatic assays ([Basso et al., 2022]). See section Quantification of Bone Marrow NSP Activities for details.
(§1) For the mice, each animal had the femurs and tibias of both hind limbs harvested. For the rat, the femur and tibia from a single hind limb per animal was harvested. Bones were kept on wet ice until processing for bone marrow collection. In brief, bone cutters were used to cut the epiphysis (knobby ends) off the long bones to expose the bone marrow filled cavity. Each bone cavity was then flushed with 5 mL/bone (mouse) or 10 mL/bone (rat) of ice-cold RPMI media through a […] and collected in a 50-mL conical tube. Cells were spun down at 2,500 × g at 4°C for 5 min and the supernatant was aspirated. After which, bone marrow cells were lysed with 1X red blood cell (RBC) lysis buffer (Abcam, ab204733) to eliminate contaminating RBCs and washed with PBS to remove any residual RBC lysis buffer. The resulting white blood cells (WBC) were subsequently lysed with 1% (v/v) Triton X-100 in PBS. Lysates were added to 96-well plates and stored at −80°C until NSP analyses.
(§2) Bone marrow lysates prepared as described above were diluted and plated onto 96-well assay plates to quantify NSP activities as described previously ([Basso et al., 2022]). Briefly, peptide substrates for NE (N-Methoxysuccinyl-Ala-Ala-Pro-Val-7-amido-4-methylcoumarin; Sigma; St. Louis, MO; Excitation/Emission at 350/450 nm), PR3 ((7-Methoxycoumarin-4-yl)acetyl-lysyl-(picolinoyl)-Tyr-Asp-Ala-Lys-Gly-Asp-N-3-(2-4-dinitrophenyl)-2-3-diaminopropyonyl-NH2); GenScript; Piscataway, NJ; Excitation/Emission at 340/430 nm), and CatG (N-Succinyl-Ala-Ala-Pro-Phe p nitroanilide; Sigma; Absorbance at 405 nm) were added at a final assay concentration of 100 μM, 40 μM, and 200 μM, respectively, and either fluorescence or absorbance was quantified using a Synergy microplate reader (BioTek; Winooski, VT). The specific NSP activity in each sample was calculated as the total activity minus the activity in the presence of a specific NSP inhibitor (if used), including elastase inhibitor (Abcam) for NE, sivelestat (Abcam) for PR3, and cathepsin G inhibitor I (Cayman Chemical; Ann Arbor, MI) for CatG. NSP concentrations were interpolated based on their activities relative to the standard curves created using active human NE protein (Sigma), active human PR3 protein (Sigma), and active human CatG protein (Sigma), respectively. Due to unavailability of commercial mouse and/or rat NE, PR3, and CatG proteins, the corresponding human proteins were used instead since their catalytic ability is considered to be conserved across species. A portion of each cell lysate sample was retained for protein quantification using a Pierce™ BCA Protein Assay Kit (Thermo Fisher). The NSP activities were normalized for the cell lysate protein concentrations.
The Pierce™ BCA Protein Assay Kit was used to measure the total protein of the samples after lysis to allow for subsequent normalization. […]

CatG [1] = test: PD onset study, bone marrow CatG activity, C57BL/6 mice; details: for Percent change from vehicle CatG: bone marrow, 5 mg/kg BID oral
Method: A 14-day PD onset study was performed in female C57BL/6 mice dosed BID. Mice were dosed by oral gavage either with vehicle (0 mg/kg) or 5 mg/kg brensocatib (BID; 10 mg/kg/day) for 1, 4, 7, 10, or 14 consecutive days. Plasma was collected from animals during the first 24 h of dosing at 1, 2, 8, 9, 10, and 24 h post the initial dose. Note the 8- and 24-h plasma samples were prior to the afternoon dose and the second day dose (if applicable), respectively. Plasma was used for PK analysis via LC-MS/MS. On prescribed days, animals were sacrificed 16 h post final dose, and the hind bones (femurs and tibias) were collected at necropsy for bone marrow analysis of NSP activities by kinetic enzymatic assays.
as §1, §2
(§3) The Pierce™ BCA Protein Assay Kit was used to measure the total protein of the samples after lysis to allow for subsequent normalization. The manufacturer’s instructions for use were followed when performing this assay on a portion of the sample lysates which were diluted in PBS, the same diluent as used for preparation of the standard. Plates were read on the Biotek Synergy plate reader with Gen5 software.

CatG [2] = test: PD recovery study, bone marrow CatG activity, C57BL/6 mice; details: for Percent change from vehicle CatG: bone marrow
Method: A PD recovery study was performed in female C57BL/6 mice dosed BID for 8 consecutive days. Mice were dosed by oral gavage either with vehicle (0 mg/kg) or 5 mg/kg brensocatib (BID; 10 mg/kg/day). After 8 consecutive days of dosing, the animals were maintained without further treatment until prescribed sacrifice (days: 1, 3, 6, 8, and 10 days post final dose). Plasma was collected from animals during the first 24 h of dosing at −0.5 (half-hour prior to dosing), 1, 8, 9, and 24 h post initial dose. Note that the 8- and 24-h plasma samples were prior to the afternoon dose and prior to the second day dose, respectively. Plasma was used for PK analysis via LC-MS/MS. On prescribed days, animals were sacrificed, and the hind limb bones (femurs and tibias) were collected at necropsy for bone marrow analysis of NSP activities by kinetic enzymatic assays.
as §1, §2, §3

[3] = 5 mg/kg BID, curve fit with free min and max
[4] = after 8 days of 5 mg/kg BID, curve fit with free min and max

In the case of `Cn1c(=O)oc2ccc(-c3ccc(C[C@@H](C#N)NC(=O)[C@@H]4CNCCCO4)cc3)cc21` [brensocatib], the “Reduction of NE activity vs vehicle” value (NE; BID highest dose (20 mg/kg/day)) is reported as 19%, the “Reduction of NE activity vs vehicle” value (NE; QD highest dose (30 mg/kg/day)) is reported as 19% and the “Combined BID and QD percent reduction, NE” value (NE; highest dose level 20/30 (BID/QD) mg/kg/day) is reported as 19%. The “Change From Vehicle Control (%) NE” value (NE; oral BID 0.2 mg/kg/day) was −6% (p = 0.9661), the “Change From Vehicle Control (%) NE” value (NE; oral BID 2 mg/kg/day) was −6% (p = 0.9676) and the “Change From Vehicle Control (%) NE” value (NE; oral BID 20 mg/kg/day) was −19% (p = 0.4767). For the same molecule, the “Change From Vehicle Control (%) NE” value (NE; oral QD 0.3 mg/kg/day) was “+8% (p = 0.9636)”, the “Change From Vehicle Control (%) NE” value (NE; oral QD 3 mg/kg/day) was “+17% (p = 0.7823)” and the “Change From Vehicle Control (%) NE” value (NE; oral QD 30 mg/kg/day) was −19% (p = 0.7283). The “Onset: Maximum reduction (plateau), CatG” value (CatG [1]; [3]) was 97%, the “Onset: Time to reach 50% reduction, CatG” value (CatG [1]; [3]) was 2.8 days and the “Onset: Time to reach max reduction, CatG” value (CatG [1]; [3]) was 8.1 days. The “Percent change from vehicle CatG” value (CatG [1]; after 1 day of treatment) was −26% (0.0727), the “Percent change from vehicle CatG” value (CatG [1]; after 4 days of treatment) was −81% (p < 0.0001) and the “Percent change from vehicle CatG” value (CatG [1]; after 7 days of treatment) was −99% (p < 0.0001). For the same molecule, the “Percent change from vehicle CatG” value (CatG [1]; after 10 days of treatment) was −93% (p < 0.0001), the “Percent change from vehicle CatG” value (CatG [1]; after 14 days of treatment) was −99% (p < 0.0001) and the “Recovery: Time to reach 50% recovery, CatG” value (CatG [2]; [4]) was 3.3 days. For the same molecule, the “Recovery: Time to reach 90% recovery, CatG” value (CatG [2]; [4]) was 5.2 days, the “Recovery: Time to reach 95% recovery, CatG” value (CatG [2]; [4]) was 5.5 days and the “Recovery: Time to reach 100% recovery, CatG” value (CatG [2]; [4]) was 5.8 days. For the same molecule, the “Percent change from vehicle CatG” value (CatG [2]; 1 day recovery after 8 days of 5 mg/kg BID) was −93% (p < 0.0001), the “Percent change from vehicle CatG” value (CatG [2]; 3 days recovery after 8 days of 5 mg/kg BID) was −60% (p < 0.0001) and the “Percent change from vehicle CatG” value (CatG [2]; 6 days recovery after 8 days of 5 mg/kg BID) was −14% (p = 0.2431). The “Percent change from vehicle CatG” value (CatG [2]; 8 days recovery after 8 days of 5 mg/kg BID) was “+26% (p = 0.0133)” and the “Percent change from vehicle CatG” value (CatG [2]; 10 days recovery after 8 days of 5 mg/kg BID) was “+38% (p < 0.0001)”.
